Laboratory results reported in US20120100230A1, “Systems, Devices, and/or Methods for Managing Crops” (DHARMA IP, LLC, priority 2010, published 2012).

Experiment: Solubility of beta-cyclodextrin in water containing ClO2 (slurry test)
Format: physicochemical
Details: 100 g slurry, 5% beta-cyclodextrin (w/w) in 8000 ppm ClO2 vs ultrapure water, 200 rpm, 3 days
Protocol: However indirect evidence for the complex has been observed. Beta-cyclodextrin has a known solubility in water. If the water contains a guest substance that produces a cyclodextrin complex more soluble than the cyclodextrin alone, more of the cyclodextrin will dissolve into water containing that guest than into plain water. This enhanced solubility has been observed for beta-cyclodextrin in water containing ClO2. Two separate 100 g slurries of beta-cyclodextrin solutions were prepared. […] Both slurries were mixed at 200 rpm for 3 days, at which time the undissolved beta-cyclodextrin was isolated from both solutions and dried for 2 days in a desiccator. […] It is believed, by extension, that ClO2 might form complexes with gamma-cyclodextrin and/or chemically derivatized versions of the natural (alpha- (“α”), beta- (“β”), and gamma- (“γ”)) cyclodextrins. In the case of beta- and/or gamma-cyclodextrin and/or other cyclodextrins having internal cavities larger than that of alpha-cyclodextrin, it might be that the complex(es) formed with ClO2 will incorporate numbers of ClO2 molecules greater than one per cyclodextrin molecule.

weight of dried undissolved beta-cyclodextrin from ClO2 containing slurry less than the control slurry: 0.32 g
SMILES: OC[C@H]1O[C@@H]2O[C@H]3[C@H](O)[C@@H](O)[C@@H](O[C@H]4[C@H](O)[C@@H](O)[C@@H](O[C@H]5[C@H](O)[C@@H](O)[C@@H](O[C@H]6[C@H](O)[C@@H](O)[C@@H](O[C@H]7[C@H](O)[C@@H](O)[C@@H](O[C@H]8[C@H](O)[C@@H](O)[C@@H](O[C@H]1[C@H](O)[C@H]2O)O[C@@H]8CO)O[C@@H]7CO)O[C@@H]6CO)O[C@@H]5CO)O[C@@H]4CO)O[C@@H]3CO [beta-cyclodextrin]
